Measured values reported in PubChem BioAssay (NCI).
“And” between values parts separate entries of the source, which are not always exact repeats. Equal values may be shown once.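 Each compound was tested at five concentrations against cells in 96-well plates for 48 hours. GI50 marks 50% less growth. TGI: concentration producing complete growth inhibition.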

How the values were obtained:
Assay in all cases: DTP human tumour cell line panel, 48 h
[1] = system: OVCAR-8 ovarian
[2] = system: IGROV1 ovarian
[3] = system: OVCAR-5 ovarian
[4] = system: RXF 393 renal
[5] = system: HL-60(TB) leukemia
[6] = system: MALME-3M melanoma
[7] = system: U251 CNS
[8] = system: SW-620 colon
[9] = system: SK-MEL-5 melanoma
[10] = system: CAKI-1 renal

Compound	GI50 [1]	TGI [1]	GI50 [2]	TGI [2]	GI50 [3]	TGI [3]	GI50 [4]	TGI [4]	GI50 [5]	TGI [5]	GI50 [6]	TGI [6]	GI50 [7]	TGI [7]	GI50 [8]	TGI [8]	GI50 [9]	TGI [9]	GI50 [10]	TGI [10]
O=C1C(=O)c2c(nc3ccc(C(F)(F)F)cn23)-c2ccccc21	0.253 µM	0.651 µM	0.191 µM	0.47 µM	0.414 µM	0.998 µM	0.254 µM	0.616 µM	0.201 µM	0.6 µM	0.158 µM	0.295 µM	0.185 µM	0.377 µM	0.192 µM	0.397 µM	0.171 µM	0.31 µM	0.162 µM	0.297 µM
Nc1cc2c3c(cccc3c1)C(=O)N(CCN1CCCC1)C2=O	3.69 µM	> 100 µM	1.33 µM	> 100 µM	4.73 µM	> 57.6 µM	6.43 µM	42.3 µM	4.16 µM	> 100 µM	2.49 µM	7.68 µM	3.4 µM	> 100 µM	2.39 µM	> 53.8 µM	1.65 µM	4.01 µM	1.43 µM	5.83 µM
CCCCNC(c1ccc(Cl)cc1)C(O)c1ccc(Cl)cc1 (centres undefined)	2.51 µM	6.02 µM	2.41 µM	12.4 µM	2.94 µM	15.7 µM	1.49 µM	3.65 µM	1.02 µM	2.93 µM	1.52 µM	3.08 µM	1.75 µM	3.65 µM	1.78 µM	3.93 µM	1.73 µM	3.2 µM	1.82 µM	6.63 µM
COC1=CC(c2ccc[nH]2)=N/C1=C\c1[nH]c(C)c(C(=O)CCCCCCCCC(=O)O[C@H]2CC[C@H]3C4CCc5cc(O)ccc5C4CC[C@]23C)c1C (some centres undefined)	0.378 µM	> 50 µM	1.06 µM	> 50 µM	1.24 µM	> 50 µM	1.21 µM	24.5 µM	0.289 µM	> 50 µM	2.49 µM	> 36.3 µM	0.331 µM	> 50 µM	0.197 µM	> 50 µM	0.139 µM	0.456 µM	1.1 µM	> 28.4 µM
CC1(C)CC(C)(C)c2cc(NC(=S)Nc3ccc([N+](=O)[O-])cc3)ccc2S1	16.6 µM	60.4 µM	10.5 µM	29 µM	14.2 µM	49.3 µM	17.9 µM	51.8 µM	30.2 µM	> 85.3 µM	2.62 µM	10.1 µM	11.1 µM	29.4 µM	15.6 µM	> 80.2 µM	9.23 µM	19.1 µM	11.5 µM	32.1 µM
CCOC(=O)Nc1ccc2nc(-c3cscn3)[nH]c2c1	7.89 µM	> 100 µM	6.3 µM	> 100 µM	26.9 µM	> 100 µM	2.41 µM	13.6 µM	3.17 µM	> 100 µM	1.75 µM	> 100 µM	4.05 µM	> 100 µM	2.95 µM	> 100 µM	3.33 µM	> 49.1 µM	5.63 µM	> 100 µM
COC(=O)C1C=CCC2CCCCC21N1CCCC1 (centres undefined)	–	> 100 µM	–	> 100 µM	–	> 100 µM	–	> 100 µM	–	49.1 µM	–	> 100 µM	–	> 100 µM	–	> 100 µM	–	> 100 µM	–	> 100 µM
N=C1CCCC1C(=S)SCCC(N)=O (centres undefined)	–	> 100 µM	–	> 100 µM	–	> 100 µM	–	> 100 µM	–	> 100 µM	–	> 100 µM	–	> 100 µM	–	> 100 µM	–	> 100 µM	–	> 100 µM
N/N=C(/Cc1ccccc1)NNO	–	–	–	> 100 µM	–	> 100 µM	–	> 100 µM	–	> 100 µM	–	> 100 µM	–	–	–	> 100 µM	–	> 100 µM	–	> 100 µM
CC(C)(C)C[C@H]1N[C@@H](C(=O)NC2CCC(O)CC2)[C@H](c2cccc(Cl)c2F)[C@@]12C(=O)Nc1cc(Cl)ccc12 (some centres undefined)	14.8 µM	39.4 µM	2.07 µM	16.7 µM	3.88 µM	15.2 µM	3.38 µM	17.2 µM	2.66 µM	7.06 µM	0.131 µM	3.98 µM	7.86 µM	21.9 µM	12.3 µM	29.4 µM	1.41 µM	3.19 µM	0.162 µM	12.4 µM
CN(C)C(=S)/N=c1\ss/c(=N\C(=S)N(C)C)n1-c1cccc(Cl)c1	–	> 100 µM	–	> 100 µM	–	> 100 µM	–	> 100 µM	–	> 100 µM	–	> 100 µM	–	> 100 µM	–	> 100 µM	–	> 100 µM	–	> 100 µM
O=c1[nH]c(C2CCCN2)nc2c1oc1ccc(Cl)cc12 (centres undefined)	> 100 µM	> 100 µM	> 100 µM	> 100 µM	> 100 µM	> 100 µM	> 70.2 µM	> 100 µM	> 100 µM	> 100 µM	46.3 µM	> 100 µM	36.2 µM	> 100 µM	49.4 µM	> 100 µM	20.3 µM	> 85 µM	> 100 µM	> 100 µM
[N-]=[N+]=CC(=O)CCC(N)C(=O)O (centres undefined)	7.03 µM	> 218 µM	3.51 µM	43 µM and > 134 µM	–	> 186 µM	24.6 µM	210 µM	2.3 µM	208 µM	7.27 µM	> 250 µM	6.59 µM	> 250 µM	12.6 µM	> 250 µM	1.48 µM	105 µM	10.9 µM	84.5 µM
N#C/C(=C\c1ccc2[nH]ccc2c1)C(=O)NCCCCNC(=O)/C(C#N)=C/c1ccc2[nH]ccc2c1	–	> 31.6 µM	–	> 31.6 µM	–	> 31.6 µM	–	> 10 µM	–	> 31.6 µM	–	> 31.6 µM	–	> 31.6 µM	–	> 31.6 µM	–	> 31.6 µM	–	> 31.6 µM
C1=CC(=P(c2ccccc2)(c2ccccc2)c2ccccc2)C=C1	–	69.2 µM	–	24.6 µM	–	28.6 µM	–	28.2 µM	–	9.01 µM	–	17.4 µM	–	–	–	56 µM	–	30.3 µM	–	32.3 µM
CN1CCN(C2=NC(=O)/C(=C\c3ccc(N(C)C)cc3)S2)CC1	> 100 µM	> 100 µM	72.5 µM	> 100 µM	> 100 µM	> 100 µM	45.4 µM	> 100 µM	46 µM	> 100 µM	> 100 µM	> 100 µM	> 100 µM	> 100 µM	> 100 µM	> 100 µM	> 100 µM	> 100 µM	> 100 µM	> 100 µM
OCc1ccc(N(Cc2ccc(F)cc2)Cc2ccc(F)cc2)cc1Cl	12.5 µM	27.8 µM	2.08 µM	8.07 µM	2.11 µM	11.9 µM	12.7 µM	26.3 µM	14.5 µM	35.4 µM	18.4 µM	35.4 µM	5.5 µM	19.4 µM	6.21 µM	20.7 µM	15.3 µM	28.9 µM	1.7 µM	5.87 µM
COC1=CC(=O)O/C1=C(\OC)C1OC1c1ccccc1 (centres undefined)	–	> 100 µM	–	> 100 µM	–	> 100 µM	–	> 100 µM	–	> 100 µM	–	> 100 µM	–	> 100 µM	–	> 100 µM	–	> 100 µM	–	> 100 µM
C[C@@H]1C[C@@H]([C@H](O)CC2CC(=O)NC(=O)C2)C(=O)[C@@H](C)C1	0.202 µM	1.7 µM and 1.27 µM	0.388 µM	15 µM and 3.15 µM	0.317 µM	14.6 µM and 4.02 µM	0.135 µM	1.48 µM and 0.462 µM	0.202 µM	2.14 µM and 0.43 µM	0.235 µM	4.7 µM and 3.5 µM	0.237 µM	2.67 µM and 12.6 µM	0.219 µM	1.23 µM	0.199 µM	2.18 µM and 0.494 µM	0.188 µM	5.17 µM and 1.83 µM
O=C1NC(=NCCc2ccc(Cl)cc2)S/C1=C\c1ccc2ncccc2c1	12.9 µM	> 25 µM	17.6 µM	> 25 µM	> 25 µM	> 25 µM	11 µM	> 25 µM	8.69 µM	> 25 µM	> 25 µM	> 25 µM	20.8 µM	> 25 µM	14.2 µM	> 25 µM	15.8 µM	> 25 µM	> 19.5 µM	> 25 µM
N#Cc1nc(CCc2nc(C#N)c(N)o2)oc1N	–	> 10 µM	–	> 10 µM	–	> 10 µM	–	> 10 µM	–	> 10 µM	–	> 10 µM	–	–	–	> 10 µM	–	> 10 µM	–	> 10 µM
O=C1c2ccccc2-c2nc3ccncc3n21	–	> 100 µM	–	> 100 µM	–	> 100 µM	–	> 100 µM	–	> 100 µM	–	> 100 µM	–	> 100 µM	–	> 100 µM	–	–	–	> 100 µM
